In the NIST ThermoML archive (doi:10.1021/je900091b):

Assay: xn = mol fraction of the nth substance listed
Conditions: Liquid

C=C(C)C(=O)OC [methyl methacrylate] + CCCCn1cc[n+](C)c1.F[P-](F)(F)(F)(F)F
Conditions | mass density [kg/m3] | viscosity [mPa·s]
283.15 K, x1 = 0.0986 | 1360.73 | 434.9
283.15 K, x1 = 0.2094 | 1335.27 | 218.03
283.15 K, x1 = 0.3073 | 1310.42 | 118.57
283.15 K, x1 = 0.4053 | 1282.19 | 64.04
283.15 K, x1 = 0.4977 | 1250.45 | 34.64
283.15 K, x1 = 0.5993 | 1211.21 | 17.78
283.15 K, x1 = 0.7009 | 1164.35 | 8.859
283.15 K, x1 = 0.8003 | 1109.1 | 3.909
283.15 K, x1 = 0.9007 | 1042.12 | 1.719
283.15 K, x1 = 1 | 954.802 | 0.6808
288.15 K, x1 = 0.0986 | 1356.38 | 308.34
288.15 K, x1 = 0.2094 | 1330.98 | 161.21
288.15 K, x1 = 0.3073 | 1306.05 | 91.29
288.15 K, x1 = 0.4053 | 1277.72 | 50.28
288.15 K, x1 = 0.4977 | 1245.87 | 28.16
288.15 K, x1 = 0.5993 | 1206.49 | 14.99
288.15 K, x1 = 0.7009 | 1159.46 | 7.717
288.15 K, x1 = 0.8003 | 1103.97 | 3.485
288.15 K, x1 = 0.9007 | 1036.71 | 1.575
288.15 K, x1 = 1 | 949.097 | 0.6337
293.15 K, x1 = 0.0986 | 1352.04 | 224.88
293.15 K, x1 = 0.2094 | 1326.72 | 122.32
293.15 K, x1 = 0.3073 | 1301.68 | 71.8
293.15 K, x1 = 0.4053 | 1273.26 | 40.3
293.15 K, x1 = 0.4977 | 1241.3 | 23.27
293.15 K, x1 = 0.5993 | 1201.58 | 12.81
293.15 K, x1 = 0.7009 | 1154.07 | 6.781
293.15 K, x1 = 0.8003 | 1098.45 | 3.136
293.15 K, x1 = 0.9007 | 1031.1 | 1.45
293.15 K, x1 = 1 | 943.365 | 0.5899
298.15 K, x1 = 0.0986 | 1347.84 | 168.14
298.15 K, x1 = 0.2094 | 1322.45 | 94.88
298.15 K, x1 = 0.3073 | 1297.32 | 55.22
298.15 K, x1 = 0.4053 | 1268.81 | 32.87
298.15 K, x1 = 0.4977 | 1236.75 | 19.54
298.15 K, x1 = 0.5993 | 1197.09 | 11.07
298.15 K, x1 = 0.7009 | 1149.69 | 6.014
298.15 K, x1 = 0.8003 | 1093.72 | 2.836
298.15 K, x1 = 0.9007 | 1025.87 | 1.342
298.15 K, x1 = 1 | 937.615 | 0.554
303.15 K, x1 = 0.0986 | 1343.67 | 128.46
303.15 K, x1 = 0.2094 | 1318.17 | 75.44
303.15 K, x1 = 0.3073 | 1292.97 | 44.49
303.15 K, x1 = 0.4053 | 1264.37 | 27.22
303.15 K, x1 = 0.4977 | 1232.2 | 16.62
303.15 K, x1 = 0.5993 | 1192.4 | 9.662
303.15 K, x1 = 0.7009 | 1144.81 | 5.374
303.15 K, x1 = 0.8003 | 1088.59 | 2.583
303.15 K, x1 = 0.9007 | 1020.43 | 1.247
303.15 K, x1 = 1 | 931.837 | 0.5248
308.15 K, x1 = 0.0986 | 1339.49 | 100.54
308.15 K, x1 = 0.2094 | 1313.91 | 58.33
308.15 K, x1 = 0.3073 | 1288.62 | 36.45
308.15 K, x1 = 0.4053 | 1259.94 | 22.86
308.15 K, x1 = 0.4977 | 1227.67 | 14.29
308.15 K, x1 = 0.5993 | 1187.73 | 8.505
308.15 K, x1 = 0.7009 | 1139.93 | 4.838
308.15 K, x1 = 0.8003 | 1083.46 | 2.369
308.15 K, x1 = 0.9007 | 1014.97 | 1.165
308.15 K, x1 = 1 | 926.032 | 0.4956
313.15 K, x1 = 0.0986 | 1335.32 | 80.4
313.15 K, x1 = 0.2094 | 1309.66 | 47.27
313.15 K, x1 = 0.3073 | 1284.28 | 30.27
313.15 K, x1 = 0.4053 | 1255.53 | 19.43
313.15 K, x1 = 0.4977 | 1223.15 | 12.43
313.15 K, x1 = 0.5993 | 1183.05 | 7.55
313.15 K, x1 = 0.7009 | 1135.06 | 4.379
313.15 K, x1 = 0.8003 | 1078.32 | 2.175
313.15 K, x1 = 0.9007 | 1009.49 | 1.092
313.15 K, x1 = 1 | 920.185 | 0.4719
318.15 K, x1 = 0.0986 | 1331.15 | 62.99
318.15 K, x1 = 0.2094 | 1305.41 | 38.91
318.15 K, x1 = 0.3073 | 1279.94 | 25.49
318.15 K, x1 = 0.4053 | 1251.13 | 16.71
318.15 K, x1 = 0.4977 | 1218.64 | 10.9
318.15 K, x1 = 0.5993 | 1178.39 | 6.745
318.15 K, x1 = 0.7009 | 1130.19 | 3.99
318.15 K, x1 = 0.8003 | 1073.17 | 2.007
318.15 K, x1 = 0.9007 | 1004 | 1.026
318.15 K, x1 = 1 | 914.317 | 0.4497
323.15 K, x1 = 0.0986 | 1327 | 51.32
323.15 K, x1 = 0.2094 | 1301.17 | 32.45
323.15 K, x1 = 0.3073 | 1275.58 | 21.7
323.15 K, x1 = 0.4053 | 1246.74 | 14.51
323.15 K, x1 = 0.4977 | 1214.13 | 9.64
323.15 K, x1 = 0.5993 | 1173.73 | 6.066
323.15 K, x1 = 0.7009 | 1125.33 | 3.653
323.15 K, x1 = 0.8003 | 1068.01 | 1.868
323.15 K, x1 = 0.9007 | 998.489 | 0.9687
323.15 K, x1 = 1 | 908.405 | 0.4294
328.15 K, x1 = 0.0986 | 1322.85 | 42.36
328.15 K, x1 = 0.2094 | 1296.92 | 27.39
328.15 K, x1 = 0.3073 | 1271.14 | 18.69
328.15 K, x1 = 0.4053 | 1242.36 | 12.71
328.15 K, x1 = 0.4977 | 1209.65 | 8.585
328.15 K, x1 = 0.5993 | 1169.08 | 5.497
328.15 K, x1 = 0.7009 | 1120.46 | 3.362
328.15 K, x1 = 0.8003 | 1062.85 | 1.743
328.15 K, x1 = 0.9007 | 992.98 | 0.9201
328.15 K, x1 = 1 | 902.468 | 0.41
333.15 K, x1 = 0.0986 | 1318.71 | 35.43
333.15 K, x1 = 0.2094 | 1292.66 | 23.38
333.15 K, x1 = 0.3073 | 1267.36 | 16.24
333.15 K, x1 = 0.4053 | 1237.99 | 11.22
333.15 K, x1 = 0.4977 | 1205.17 | 7.691
333.15 K, x1 = 0.5993 | 1164.44 | 4.991
333.15 K, x1 = 0.7009 | 1115.59 | 3.111
333.15 K, x1 = 0.8003 | 1057.67 | 1.629
333.15 K, x1 = 0.9007 | 987.485 | 0.915
333.15 K, x1 = 1 | 896.479 | 0.3938
343.15 K, x1 = 0.0986 | 1310.46 | 25.61
343.15 K, x1 = 0.2094 | 1284.51 | 17.56
343.15 K, x1 = 0.3073 | 1259.32 | 12.57
343.15 K, x1 = 0.4053 | 1229.29 | 8.922
343.15 K, x1 = 0.4977 | 1196.23 | 6.278
343.15 K, x1 = 0.5993 | 1155.17 | 4.187
343.15 K, x1 = 0.7009 | 1105.84 | 2.708
343.15 K, x1 = 0.8003 | 1047.29 | 1.431
343.15 K, x1 = 0.9007 | 976.413 | 0.8545
343.15 K, x1 = 1 | 884.418 | 0.3636
353.15 K, x1 = 0.0986 | 1302.23 | 19.25
353.15 K, x1 = 0.2094 | 1275.98 | 13.65
353.15 K, x1 = 0.3073 | 1250.71 | 10.01
353.15 K, x1 = 0.4053 | 1220.62 | 7.259
353.15 K, x1 = 0.4977 | 1187.32 | 5.224
353.15 K, x1 = 0.5993 | 1145.91 | 3.579
353.15 K, x1 = 0.7009 | 1096.08 | 2.415
353.15 K, x1 = 0.8003 | 1036.87 | 1.272
353.15 K, x1 = 0.9007 | 965.13 | 0.781
353.15 K, x1 = 1 | 872.129 | 0.3398
